Results as given in article PMC13470012, “Long-term inhibition of lysosomal glucocerebrosidase activity promotes GPX4 stability and inhibits ferroptosis in dopaminergic neurons” (Cell Death & Disease, 2026).

Biological target: T1, lysosomal glucocerebrosidase (Homo sapiens, UniProt P04062)
T1 construct: gene GBA1
T1 sequence (P04062 40-536): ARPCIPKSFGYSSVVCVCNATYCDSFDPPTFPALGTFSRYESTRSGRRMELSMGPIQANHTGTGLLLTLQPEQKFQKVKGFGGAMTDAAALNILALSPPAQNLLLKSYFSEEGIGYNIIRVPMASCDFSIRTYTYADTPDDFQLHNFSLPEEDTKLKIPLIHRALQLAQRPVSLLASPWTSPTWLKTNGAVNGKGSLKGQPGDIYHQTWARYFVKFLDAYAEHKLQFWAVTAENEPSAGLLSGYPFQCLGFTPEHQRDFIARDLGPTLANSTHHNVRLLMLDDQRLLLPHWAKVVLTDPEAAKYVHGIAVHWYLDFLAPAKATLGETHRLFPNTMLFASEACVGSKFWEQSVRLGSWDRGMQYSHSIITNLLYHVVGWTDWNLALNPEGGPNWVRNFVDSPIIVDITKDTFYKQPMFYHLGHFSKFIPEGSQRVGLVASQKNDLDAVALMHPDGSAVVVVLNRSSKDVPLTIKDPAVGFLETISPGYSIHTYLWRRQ
Assay: fluorogenic (4-methylumbelliferone) glucocerebrosidase activity assay in lysates of CBE-treated human LUHMES cells, […] h dose range
Format: cell-based

## O[C@H]1[C@H](O)[C@@H](O)[C@@H]2O[C@@H]2[C@@H]1O [conduritol-beta-epoxide]
  IC50: ~9 µM
